Experimental data taken from patent US10961187B2, “Substituted N-acetyl-L-cysteine derivatives and related compounds” (Promentis Pharmaceuticals, Inc., priority 2013, dated 2021).

Key:
Rats = assay: Prepulse inhibition experiment (MK-801-induced deficit); assay type: in vivo; conditions: MK-801 0.1 mg/kg SC, MK-801 + vehicle control about 16%
Procedure: Rats were placed on a platform in a sound attenuating chamber (10.875″×14″×19.5″; Hamilton Kinder, CA) that rested on a motion sensing plate. During all sessions, the background noise was held constant at 60 dB. A matching session was conducted to determine the magnitude of the average startle response for each rat. This session consisted of a five minute habituation period followed by 20 trials; 17 trials involved the presentation of a single auditory stimulus (pulse stimulus; 50 dB above the background noise) and three trials in which a pre-pulse stimulus (12 db above background) was presented 100 ms before the pulse auditory stimulus. Rats were then assigned into the various treatment groups so that the magnitude of the startle response was equivalent across all groups. Two days later, a testing session was conducted to assess sensorimotor gating. One hour prior to testing, rats received a prodrug (0-100 mg/kg, P.O.) and 55 minutes later acute MK-801 maleate (0.1 mg/kg, SC). The testing session consisted of a five minute habituation period, after which rats received 58 discrete trials; 26 trials during which the pulse stimulus (50 db above background) was presented alone, eight trials each in which the pulse stimulus was preceded by a prepulse stimulus (5, 10, or 15 db above background) and eight background trials with no pulse (No stimulus; background noise only). The first six pulse alone trials were not included in the average startle stimulus to achieve a relatively stable level of startle reactivity. All startle responses were normalized to vehicle control, and the percent of prepulse inhibition was determined as 100-(average prepulse startle response/average startle stimulus alone)*100.

[1] = tested on: mixed cortical cell cultures containing glial and neuronal cells; assay: In vitro thiol experiment: intracellular cysteine levels; assay type: cell-based, mice; conditions: for intracellular cysteine concentration: raw concentration in collected samples
Procedure: To further resolve by what process the inhibition of ^14C-cystine uptake is occurring intracellular cysteine levels were determined.
Mixed cortical cell cultures containing glial and neuronal cells were prepared from fetal (15-16 day gestation) mice as previously described. (Lobner D, “Comparison of the LDH and MTT assays for quantifying cell death: validity for neuronal apoptosis?,” J. Neurosci. Methods, 96(2): 147-152 (Mar. 15, 2000)). Dissociated cortical cells were plated on 24-well plates coated with poly-D-lysine and laminin in Eagles' Minimal Essential Medium (MEM, Earle's salts, supplied glutamine-free) supplemented with 5% heat-inactivated horse serum, 5% fetal bovine serum, 2 mM glutamine and glucose (total 21 mM). Cultures were maintained in humidified 5% CO2 incubators at 37° C. Mice were handled in accordance with a protocol approved by our institutional animal care committee and in compliance with the Public Health service Policy on Humane Care and Use of Laboratory Animals.
Mixed cortical cell cultures, 14 days in vitro (this allows for a confluent layer of astrocytes to form and the neurons to generate a complex network of axons and dendrites), were washed into bicarbonate buffered salt solution. After 1 hour, 3, 10, 30, 100 μM of Pro-4047 or Pro-4051 was added and the cells were incubated for 30 or 90 minutes, after which the cells were thoroughly washed and the collected in 250 μL of aqueous mobile phase (50 mM citric acid, 10 mM octanesulfonic acid, pH 2.8) was added, after 10 minutes at 37° C. the cells were scraped from the plates and transferred to 1.5 mL tubes for analysis.
Samples were then sonicated with a Fisher Scientific 60 Sonic Dismembrator. One fraction of this homogenate was analyzed with the Pierce BCA (bicinchoninic acid) method to determine protein concentration. The other fraction was filtered using 3 K molecular weight cutoff, polyethersulfone centrifugal protein filters, and analyzed for thiol content using HPLC (ALF-115 column, 150×1.0 mm, 3 μm C18 [Pro-2023 analysis utilized a Phenomenex Kinetex 2.6 μM, C18, 100 A, 150×2.1 mm and Pro-4047 analysis utilized a Phenomenex Kinetex X-B, C18, 100 A, 2.6 μm, 150×4.4 mm]; mobile phase: 50 mM citric acid, 10 mM octanesulfonic acid, 2% acetonitrile, pH 2.8, 50 μL/min flow rate [Pro-2023 analysis utilized a 100 μL/min flow rate and Pro-4047 analysis utilized 1% acetonitrile and 0.4 mL/min flow rate] with electrochemical detection (Decade II, Au working electrode, Flex Cell HyREF, 0.55V, Antec Leyden, Netherlands [Pro-4047 analysis utilized a Magic Diamond working electrode and 1.8V]).
When the intracellular thiol assay was initiated, all data was normalized to protein concentration. […] The data presented herein represents the raw cysteine concentrations in the collected samples. […] Pro-4006 at 10 μM increases intracellular cysteine concentration to 0.07 μM at 30 minutes (approximately 3.5 times that of the control; FIG. 11). […] Pro-4047 at 300 μM increases intracellular cysteine concentration to 0.74 μM at 90 minutes (approximately 4.9 times that of the control; FIG. 13). […] Thus, based on the 3 in vitro experiments it is apparent that Pro-2023, Pro-4006, Pro-4011, Pro-4047, Pro-4051 and Pro-4051a behave as effective cysteine prodrugs.

[2] = 10 mg/kg P.O. one hour prior to testing

| Compound | % prepulse inhibition (Rats; [2]) | intracellular cysteine, times that of the control ([1]; 100 μM compound, 30 minutes) | intracellular cysteine concentration ([1]; 100 μM compound, 30 minutes) | % prepulse inhibition (Rats; 3 mg/kg P.O. one hour prior to testing) | intracellular cysteine, times that of the control ([1]; 300 μM compound, 90 minutes) | intracellular cysteine concentration ([1]; 300 μM compound, 90 minutes) | intracellular cysteine, times that of the control ([1]; 100 μM compound, 90 minutes) | intracellular cysteine concentration ([1]; 100 μM compound, 90 minutes) |
| --- | --- | --- | --- | --- | --- | --- | --- | --- |
| CC(=O)N[C@@H](CSC(=O)c1ccc(C)cc1)C(=O)O [Pro-2023, (2R)-2-Acetylamino-3-(4-methyl-benzoylsulfanyl)-propionic acid] | about 30% | approximately 1.6 times | 0.16 µM |  |  |  |  |  |
| CCOC(=O)[C@H](CSC(=O)C1CSC(=O)N1)NC(C)=O (stereo partly drawn) [Pro-4047, Ethyl (2R)-2-acetamido-3-(2-oxo-1,3-thiazolidine-4-carbonylsulfanyl) propanoate] |  |  |  | about 23% | approximately 4.9 times | 0.74 µM |  |  |
| CCOC(=O)[C@H](CSC(=O)c1ccc(C)cc1)NC(C)=O [Pro-4051, Ethyl (2R)-2-acetamido-3-(4-methylbenzoylsulfanyl)propanoate] | about 46% |  |  |  |  |  | approximately 4 times | 0.36 µM |
